Key:
MET kinase = biological target: T1, MET kinase (Homo sapiens, UniProt P08581); assay: MET Luminescence-Based ATP Depletion Enzyme Assay; format: biochemical; conditions: 10 μM ATP
T1 construct: expressing the kinase domain of human Met; 6x Histidine tag (cleaved yes); made in house; host or cells: Sf9 insect cells
Method: MET Luminescence-Based ATP Depletion Enzyme Assay
Materials: Poly Glu-Tyr (4:1) substrate (Sigma Cat#P-0275), ATP (Sigma Cat#A-3377, FW=551), HEPES buffer, pH 7.5, Bovine serum albumin (BSA) (Roche 92423420), MgCl2, Staurosporine (Streptomyces sp. Sigma Cat#85660-1MG), white Costar 384-well flat-bottom plate (VWR Cat#29444-088). MET kinase (see below), Kinase-Glo™ (Promega Cat#V6712).
Stock Solutions: 10 mg/ml poly Glu-Tyr in water, stored at −20° C.; 100 mM HEPES buffer, pH 7.5 (5 ml 1M stock+45 ml miliQH2O); 10 mM ATP (5.51 mg/ml in dH2O) stored at −20° C. (diluted 50 μl into total of 10 ml miliQH2O daily=50 μM ATP working stock); 1% BSA (1 g BSA in 100 ml 0.1M HEPES, pH 7.5, stored at −20° C.), 100 mM MgCl2; 200 μM Staurosporine, 2× Kinase-Glo™ reagent (made fresh or stored at −20° C.).
Standard Assay Setup for 384-well format (20 μl kinase reaction, 40 μl detection reaction): 10 mM MgCl2; 0.3 mg/ml poly Glu-Tyr; 0.1% BSA; 1 μl test compound (in DMSO); 0.4 μg/ml MET kinase; 10 μM ATP; 100 mM HEPES buffer. Positive controls contained DMSO with no test compound. Negative controls contained 10 μM staurosporine. The kinase reactions were initiated at time t=0 by the addition of ATP. Kinase reactions were incubated at 21° C. for 60 min, then 20 μl of Kinase-Glo™ reagent were added to each well to quench the kinase reaction and initiate the luminescence reaction. After a 20 min incubation at 21° C., the luminescence was detected in a plate-reading luminometer.
The cell pellets produced from half of a 12 L Sf9 insect cell culture expressing the kinase domain of human Met were resuspended in a buffer containing 50 mM Tris-HCl pH 7.7 and 250 mM NaCl, in a volume of approximately 40 ml per 1 L of original culture. One tablet of Roche Complete, EDTA-free protease inhibitor cocktail (Cat#1873580) was added per 1 L of original culture. The suspension was stirred for 1 hour at 4° C. Debris was removed by centrifugation for 30 minutes at 39,800×g at 4° C. The supernatant was decanted into a 500 ml beaker and 10 ml of 50% slurry of Qiagen Ni-NTA Agarose (Cat#30250) that had been pre-equilibrated in 50 mM Tris-HCl pH 7.8, 50 mM NaCl, 10% Glycerol, 10 mM Imidazole, and 10 mM Methionine, were added and stirred for 30 minutes at 4° C. The sample was then poured into a drip column at 4° C. and washed with 10 column volumes of 50 mM Tris-HCl pH 7.8, 500 mM NaCl, 10% Glycerol, 10 mM Imidazole, and 10 mM Methionine. The protein was eluted using a step gradient with two column volumes each of the same buffer containing 50 mM, 200 mM, and 500 mM Imidazole, sequentially. The 6× Histidine tag was cleaved overnight using 40 units of TEV protease (Invitrogen Cat#10127017) per 1 mg of protein while dialyzing in 50 mM Tris-HCl pH 7.8, 500 mM NaCl, 10% Glycerol, 10 mM Imidazole, and 10 mM Methionine at 4° C. The 6× Histidine tag was removed by passing the sample over a Pharmacia 5 ml IMAC column (Cat#17-0409-01) charged with Nickel and equilibrated in 50 mM Tris-HCl pH 7.8, 500 mM NaCl, 10% Glycerol, 10 mM Imidazole, and 10 mM Methionine. The cleaved protein bound to the Nickel column at a low affinity and was eluted with a step gradient. The step gradient was run with 15% and then 80% of the B-side (A-side=50 mM Tris-HCl pH 7.8, 500 mM NaCl, 10% Glycerol, 10 mM Imidazole, and 10 mM Methionine; B-side=50 mM Tris-HCl pH 7.8, 500 mM NaCl, 10% Glycerol, 500 mM Imidazole, and 10 mM Methionine) for 4 column volumes each. The Met protein eluted in the first step (15%), whereas the non-cleaved Met and the cleaved Histidine tag eluted in the 80% fractions. The 15% fractions were pooled after SDS-PAGE gel analysis confirmed the presence of cleaved Met; further purification was done by gel filtration chromatography on an Amersham Biosciences HiLoad 16/60 Superdex 200 prep grade (Cat#17-1069-01) equilibrated in 50 mM Tris-HCl pH 8.5, 150 mM NaCl, 10% Glycerol and 5 mM DTT. […]

HCT116 cells = assay: 96-well XTT cell survival assay (AurA XTT); format: cell-based; conditions: Homo sapiens, HCT-116, 72 hours
Method: HCT116 cells were maintained in McCoy's 5a Medium supplemented with 10% fetal bovine serum (FBS) 2 mM L-Glutamine and 100 units penicillin/100 μg streptomycin, at 37° C. in 5% CO2
Compounds were tested in the following assays in duplicate.
96-well XTT assay: Cells were grown in growth media containing various concentrations of compounds (duplicates) on a 96-well flat bottom plate for 72 hours at 37° C. in 5% CO2. The starting cell number was 5000 cells per well and volume was 120 μl. At the end of the 72-hour incubation, 40 μl of XTT labeling mixture (50:1 solution of sodium 3′-[1-(phenylaminocarbonyl)-3,4-tetrazolium]-bis(4-methoxy-6-nitro) benzene sulfonic acid hydrate and Electron-coupling reagent: PMS (N-methyl dibenzopyrazine methyl sulfate) were added to each well of the plate. After an additional 2-6 hours […] with a spectrophotometer.

T1 sequence (P08581 1078-1345 limits assumed): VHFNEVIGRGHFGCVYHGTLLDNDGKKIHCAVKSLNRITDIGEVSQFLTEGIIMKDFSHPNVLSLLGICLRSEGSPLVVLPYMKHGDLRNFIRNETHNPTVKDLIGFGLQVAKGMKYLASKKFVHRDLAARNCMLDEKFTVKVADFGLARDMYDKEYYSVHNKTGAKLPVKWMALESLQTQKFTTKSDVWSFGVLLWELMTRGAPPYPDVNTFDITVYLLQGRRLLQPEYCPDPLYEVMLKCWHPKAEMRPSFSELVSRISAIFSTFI

| IC50 (MET kinase) [µM] | SMILES | IC50 (HCT116 cells) [µM] |
| --- | --- | --- |
| 1 to 5 | CC(O)c1cccc(Nc2nccc(-c3ccc(-c4cccnc4)s3)n2)c1 (stereo not shown) | 1 to 5 |
| < 1 | C[C@@H](NC(=O)c1ccc(-c2ccnc(Nc3cccc(CN4CCN(CCO)CC4)c3)n2)s1)c1ccccc1 | < 1 |
| < 1 | CC(O)c1cccc(Nc2nccc(-c3ccc(S(=O)(=O)Cc4ccccc4)s3)n2)c1 (stereo not shown) |  |
| 1 to 5 | O=C(c1cccc(Nc2nccc(-c3ccc(Br)s3)n2)c1)N1CCN(CCO)CC1 | 1 to 5 |
| < 1 | C[C@@H](NC(=O)c1ccc(-c2ccnc(Nc3cccc(CN4CCC(O)CC4)c3)n2)s1)c1ccccc1 | < 1 |
| 1 to 5 | O=C(NCc1ccccc1)c1ccc(-c2ccnc(Nc3ccc(CCO)cc3)n2)s1 | 1 to 5 |
| 1 to 5 | COc1ccc(Nc2nccc(-c3ccc(Br)s3)n2)cc1C(=O)N(C)C | 1 to 5 |
| 1 to 5 | CCC(=O)Nc1ccc(-c2ccnc(Nc3cccc(C)c3)n2)s1 | 1 to 5 |
| 1 to 5 | OC1CCN(Cc2cccc(Nc3nccc(-c4ccc(CNc5ccccc5Cl)s4)n3)c2)CC1 |  |
| 1 to 5 | CN(C)C(=O)c1cccc(Nc2nccc(-c3ccc(Br)s3)n2)c1 |  |

Further lines, the molecule ahead of its results:

| SMILES | IC50 (MET kinase) [µM] | IC50 (HCT116 cells) [µM] |
| --- | --- | --- |
| CCN(CCC#N)S(=O)(=O)c1ccc(-c2ccnc(Nc3cccc(C)c3)n2)s1 | < 1 | 1 to 5 |
| COc1ccc(Nc2nccc(-c3ccc(Br)s3)n2)cc1OC | 1 to 5 |  |
| CCN(CCC#N)S(=O)(=O)c1ccc(-c2ccnc(Nc3cccc(C(C)O)c3)n2)s1 (stereo not shown) | < 1 | 1 to 5 |
| CN(Cc1ccccc1)C(=O)c1ccc(-c2ccnc(Nc3ccc(CCO)cc3)n2)s1 |  | 1 to 5 |
| Brc1ccc(-c2ccnc(Nc3cccc(CN4CCOCC4)c3)n2)s1 | 1 to 5 |  |
| CCC1CCCCN1S(=O)(=O)c1ccc(-c2ccnc(Nc3cccc(C(C)O)c3)n2)s1 (stereo not shown) | < 1 |  |
| CCN(CCC#N)C(=O)c1ccc(-c2ccnc(Nc3cccc(C(C)O)c3)n2)s1 (stereo not shown) |  | < 1 |
| CC(O)c1cccc(Nc2nccc(-c3ccc(S(=O)(=O)N(C)C)s3)n2)c1 (stereo not shown) | 1 to 5 | 1 to 5 |
